Laboratory results from patent US12336991B2, “Factor XIIA inhibitors” (UNIVERSITY OF LEEDS, priority 2018, dated 2025).
pKi: −log10 of the molar value.

What was measured:
Type in all cases: biochemical
FXIIa = target: T1, FXIIa (Homo sapiens, UniProt P00748); test: Determination of Factor XIIa inhibition, chromogenic substrate S-2302 assay; settings: human FXIIa alpha
T1 sequence (P00748 373-615 limits assumed): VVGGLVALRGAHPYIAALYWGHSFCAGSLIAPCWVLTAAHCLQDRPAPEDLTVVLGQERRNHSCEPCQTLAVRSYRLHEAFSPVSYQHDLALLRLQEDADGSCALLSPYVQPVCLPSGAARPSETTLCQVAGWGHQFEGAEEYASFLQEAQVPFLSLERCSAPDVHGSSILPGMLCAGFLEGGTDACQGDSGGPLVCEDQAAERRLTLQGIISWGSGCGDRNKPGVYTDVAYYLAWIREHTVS
T1 sequence (P00748 20-372 partner limits assumed): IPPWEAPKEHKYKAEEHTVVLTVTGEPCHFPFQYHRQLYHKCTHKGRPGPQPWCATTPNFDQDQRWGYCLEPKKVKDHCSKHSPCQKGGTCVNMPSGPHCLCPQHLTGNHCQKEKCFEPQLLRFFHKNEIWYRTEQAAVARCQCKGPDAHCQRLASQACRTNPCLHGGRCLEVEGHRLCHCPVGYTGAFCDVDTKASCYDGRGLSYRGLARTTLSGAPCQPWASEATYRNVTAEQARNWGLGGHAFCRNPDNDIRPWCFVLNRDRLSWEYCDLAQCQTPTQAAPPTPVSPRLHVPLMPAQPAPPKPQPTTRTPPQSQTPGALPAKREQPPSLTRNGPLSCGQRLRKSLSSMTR
Procedure: (§1) The activities of the compounds of the invention have been determined in vitro using the following assays protocols for the screening of activity of FXIIa and other proteases. Each of these assays were performed in a purified system employing the use of chromogenic assays in microplate plate wells. Chromogenic peptide substrates mimicking natural protein substrates are attached via an amide bond to a chromogenic group. Paranitroaniline (pNA) is released from the peptide following catalyses by the proteolytic enzyme; the absorbance increases and can be monitored at 405 nm.
(§2) All compounds were dissolved in 100% (v/v) DMSO to a stock concentration of 10 mM, the highest concentration of compound used in each assay is 500 μM. The final concentrations of DMSO were 5% (v/v) in 50 mM Tris 137 mM NaC pH 7.4. Where no test compound was added a final concentration of 5% DMSO was employed.
Determination of Factor XIa Inhibition
Factor XIa activity was measured using a chromogenic substrate S-2302 (Chromogenix). Various concentrations of compound were incubated with 10 nM of FXIIa and incubated at 37° C. for 10 minutes in 50 mM Tris, 137 mM NaCl, pH 7.4, prior to the addition of a final concentration of 450 µM S-2302 chromogenic substrate. Kinetic readings at 405 nm were monitored every 12 secs for a total duration of 3 hours at 37° C. Gradients of initial rates were determined and employed to calculate IC50 values. Values of IC50 were converted to Ki values based on the formula: Ki=IC50/(1+[Substrate]/Km).
The activity of the compounds of the invention has been categorised based on the Ki values, the categories being “*”, “**” and “***”. […] The category “**” refers to compounds with a Ki value of 0.2 μM to 2 μM.

thrombin = target: T2, thrombin (Homo sapiens, UniProt P00734); test: Determination of selectivity: thrombin inhibition, chromogenic substrate GPR assay; settings: fold selectivity for FXIIa over thrombin
T2 construct: FXa (5 nM) and thrombin (5 nM)
Procedure: as §1, §2
(§3) Determination of Selectivity
(§4) To determine selectivity of test compounds, these test compounds were assayed for inhibitory activity against other serine proteases including FXa and thrombin. Essentially compounds at increasing concentrations were incubated with each enzyme: FXa (5 nM) and thrombin (5 nM), for 10 mins at 37° C. followed the appropriate chromogenic substrate, S2765 ([…]), and GPR ([…]) respectively in 50 mM Tris, 137 mM NaCl, pH 7.4. Chromogenic substrates S2765 was from Chromogenix, and GPR from Bachem. Kinetic readings at 405 nm were monitored every 12 secs for a total duration of 3 hours at 37° C. Gradients of initial rates were determined and employed to calculate IC50 values. Values of IC50 were converted to Ki values based on the formula: Ki=IC50/(1+[Substrate]/Km)
(§5) Where [Substrate] denotes the concentration of substrate used in the assay and Km is the determined value of each enzyme with its own substrate.
(§6) The fold selectivity for FXIIa over thrombin for the compounds of the invention has been categorised based on the fold selectivity values, the categories being “+”, “++” and “+++”. The category “+” refers to fold selectivity values less than 10. The category “++” refers to a fold selectivity value of 10 to 100. The category “+++” refers to fold selectivity values greater than 100.

FXa = FXa (Homo sapiens, UniProt P00742); test: Determination of selectivity: FXa inhibition, chromogenic substrate S2765 assay; settings: fold selectivity for FXIIa over FXa
FXa, sequence (P00742 235-488 limits assumed): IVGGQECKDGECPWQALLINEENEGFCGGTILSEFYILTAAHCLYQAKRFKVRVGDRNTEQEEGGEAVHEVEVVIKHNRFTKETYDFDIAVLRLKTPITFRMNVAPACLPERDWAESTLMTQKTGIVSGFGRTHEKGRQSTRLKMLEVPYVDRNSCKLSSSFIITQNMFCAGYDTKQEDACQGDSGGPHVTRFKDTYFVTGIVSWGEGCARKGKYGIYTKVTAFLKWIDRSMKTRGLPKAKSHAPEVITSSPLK
FXa, sequence (P00742 41-179 partner limits assumed): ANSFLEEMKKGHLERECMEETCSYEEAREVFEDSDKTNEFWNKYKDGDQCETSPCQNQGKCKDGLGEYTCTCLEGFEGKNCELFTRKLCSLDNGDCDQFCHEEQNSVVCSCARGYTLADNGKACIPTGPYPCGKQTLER
Procedure: as §1, §2, §3, §4, §5, §6
The fold selectivity for FXIIa over FXa for the compounds of the invention has been categorised based on the fold selectivity values, the categories being “o”, “oo” and “ooo”. The category “o” refers to fold selectivity values less than 10. The category “oo” refers to a fold selectivity value of 10 to 100. The category “ooo” refers to fold selectivity values greater than 100.

COc1ccc(C[C@@H]2C[C@@H](C(=O)NCc3ccc4c(c3)nnn4C)N(C(=O)[C@H](N)CCC(=O)N3CCC[C@H]3C#N)C2)cc1 [Example M05402]
pKi (FXIIa): > 6.70
Thrombin (human)/FXIIa alpha (human) (thrombin): +++ (fold selectivity values greater than 100)
FXa (human)/FXIIa alpha (human) (FXa): ∘∘∘

Cn1nnc2cc(CNC(=O)[C@@H]3C[C@H](NCc4cccc(C(F)(F)F)c4)CN3C(=O)[C@H](N)CCc3ccccc3)ccc21 [Example M05159]
pKi (FXIIa): < 5.70
Thrombin (human)/FXIIa alpha (human) (thrombin): ++ (fold selectivity value of 10 to 100)
FXa (human)/FXIIa alpha (human) (FXa): ∘∘

COc1ccc(C[C@@H]2C[C@@H](C(=O)NCc3ccc4c(c3)nnn4C)N(C(=O)[C@H]3CC(c4ccc(Cl)cc4)CN3)C2)cc1 (stereo partly drawn) [Example M05346]
pKi (FXIIa): < 5.70
Thrombin (human)/FXIIa alpha (human) (thrombin): ++ (fold selectivity value of 10 to 100)
FXa (human)/FXIIa alpha (human) (FXa): ∘∘

COc1ccc(C[C@@H]2C[C@@H](C(=O)NCc3cc4cnccc4[nH]3)N(C(=O)[C@H]3C[C@@H](N4CCCCC4)CN3)C2)cc1 [Example M00964]
pKi (FXIIa): > 6.70
Thrombin (human)/FXIIa alpha (human) (thrombin): +++ (fold selectivity values greater than 100)
FXa (human)/FXIIa alpha (human) (FXa): ∘∘∘

COc1ccc(C[C@@H]2C[C@@H](C(=O)NCc3cc4ccncc4[nH]3)N(C(=O)[C@H](N)CCC(=O)N3CCCC3)C2)cc1 [Example M00952]
pKi (FXIIa): > 6.70
Thrombin (human)/FXIIa alpha (human) (thrombin): +++ (fold selectivity values greater than 100)
FXa (human)/FXIIa alpha (human) (FXa): ∘∘∘

Cc1ccc(C[C@@H]2C[C@@H](C(=O)NCc3cc4cnccc4[nH]3)N(C(=O)[C@H](N)CCC(=O)N3CCCC3)C2)cc1 [Example M00968]
pKi (FXIIa): > 6.70
Thrombin (human)/FXIIa alpha (human) (thrombin): +++ (fold selectivity values greater than 100)
FXa (human)/FXIIa alpha (human) (FXa): ∘∘∘

COc1ccc(C[C@@H]2C[C@@H](C(=O)NCc3cc4cnccc4[nH]3)N(C(=O)C3NCCc4cc(OC)ccc43)C2)cc1 (single isomer, unassigned) [Example M00961]
pKi (FXIIa): > 6.70
Thrombin (human)/FXIIa alpha (human) (thrombin): +++ (fold selectivity values greater than 100)
FXa (human)/FXIIa alpha (human) (FXa): ∘∘∘

Cn1nnc2cc(CNC(=O)[C@@H]3C[C@@H](Cc4ccncc4)CN3C(=O)[C@@H](CCC(=O)N3CCCC3)NS(C)(=O)=O)ccc21 [Example M05268]
pKi (FXIIa): < 5.70
Thrombin (human)/FXIIa alpha (human) (thrombin): +++ (fold selectivity values greater than 100)
FXa (human)/FXIIa alpha (human) (FXa): ∘∘∘

Cn1nnc2cc(CNC(=O)[C@@H]3C[C@@H](Cc4ccncc4)CN3C(=O)[C@@H](CCC(=O)N3CCCC3)NS(=O)(=O)c3ccccc3)ccc21 [Example M05290]
pKi (FXIIa): < 5.70
Thrombin (human)/FXIIa alpha (human) (thrombin): +++ (fold selectivity values greater than 100)
FXa (human)/FXIIa alpha (human) (FXa): ∘∘

Cn1nnc2cc(CNC(=O)[C@@H]3C[C@@H](Cc4cccc(C(F)(F)F)c4)CN3C(=O)[C@H]3C[C@@H](c4ccccc4)CN3)ccc21 [Example M05356]
pKi (FXIIa): < 5.70
Thrombin (human)/FXIIa alpha (human) (thrombin): ++ (fold selectivity value of 10 to 100)
FXa (human)/FXIIa alpha (human) (FXa): ∘∘

Cn1nnc2cc(CNC(=O)[C@@H]3CC(Cc4ccccc4C#N)CN3C(=O)[C@H](N)CCC(=O)N3CCCC3)ccc21 (stereo partly drawn) [Example M05320]
pKi (FXIIa): > 6.70
Thrombin (human)/FXIIa alpha (human) (thrombin): +++ (fold selectivity values greater than 100)
FXa (human)/FXIIa alpha (human) (FXa): ∘∘∘

COc1ccc(C[C@@H]2C[C@@H](C(=O)NCc3ccc4c(c3)nnn4C)N(C(=O)[C@H]3CC(c4cnccc4OC)CN3)C2)cc1 (stereo partly drawn) [Example M05410]
pKi (FXIIa): < 5.70
Thrombin (human)/FXIIa alpha (human) (thrombin): + (fold selectivity values less than 10)
FXa (human)/FXIIa alpha (human) (FXa): ∘∘

Cn1nnc2cc(CNC(=O)[C@@H]3C[C@@H](Cc4ccc(F)cc4F)CN3C(=O)[C@H](N)CCC(=O)N3CCCC3)ccc21 [Example M05235]
pKi (FXIIa): > 6.70
Thrombin (human)/FXIIa alpha (human) (thrombin): +++ (fold selectivity values greater than 100)
FXa (human)/FXIIa alpha (human) (FXa): ∘∘∘

Cn1nnc2cc(CNC(=O)[C@@H]3CC(Cc4ccnc(C(F)(F)F)c4)CN3C(=O)[C@H](N)CCC(=O)N3CCCC3)ccc21 (stereo partly drawn) [Example M05303]
pKi (FXIIa): 5.70 to 6.70
Thrombin (human)/FXIIa alpha (human) (thrombin): ++ (fold selectivity value of 10 to 100)
FXa (human)/FXIIa alpha (human) (FXa): ∘∘∘

CN(C1CCCCC1)C1C[C@@H](C(=O)NCc2ccc3c(c2)nnn3C)N(C(=O)[C@H](N)CCc2ccccc2)C1 (stereo partly drawn) [Example M05242]
pKi (FXIIa): < 5.70
Thrombin (human)/FXIIa alpha (human) (thrombin): ++ (fold selectivity value of 10 to 100)
FXa (human)/FXIIa alpha (human) (FXa): ∘∘

NCc1ncc(CNC(=O)[C@@H]2CCCN2C(=O)[C@H](N)CCc2ccccc2)s1 [Example M05099]
pKi (FXIIa): < 5.70
Thrombin (human)/FXIIa alpha (human) (thrombin): + (fold selectivity values less than 10)
FXa (human)/FXIIa alpha (human) (FXa): ∘∘

COc1ccc(C[C@@H]2C[C@@H](C(=O)NCc3ccc4c(c3)nnn4C)N(C(=O)C3NCCc4cc(OC)ccc43)C2)cc1 (stereo partly drawn) [Example M05442]
pKi (FXIIa): 5.70 to 6.70
Thrombin (human)/FXIIa alpha (human) (thrombin): +++ (fold selectivity values greater than 100)
FXa (human)/FXIIa alpha (human) (FXa): ∘∘∘

COc1ccc(C[C@@H]2C[C@@H](C(=O)NCc3ccc4c(c3)nnn4C)N(C(=O)[C@H]3CC(c4cnccc4C(F)(F)F)CN3)C2)cc1 (stereo partly drawn) [Example M05398]
pKi (FXIIa): < 5.70

COc1ccc(C[C@@H]2C[C@@H](C(=O)NCc3ccc4c(c3)nnn4C)N(C(=O)[C@H]3CC(c4cnccc4C)CN3)C2)cc1 (stereo partly drawn) [Example M05408]
pKi (FXIIa): < 5.70

CC(=O)N[C@H]1C[C@@H](C(=O)NCc2ccc3c(c2)nnn3C)N(C(=O)[C@H](N)CCc2ccccc2)C1 [Example M05144, (2S,4S)-4-Acetylamino-1-((R)-2-amino-4-phenyl-butyryl)-pyrrolidine-2-carboxylic acid (1-methyl-1H-benzotriazol-5-ylmethyl)-amide]
pKi (FXIIa): < 5.70

COc1ccc(C[C@@H]2C[C@@H](C(=O)NCc3ccc4c(c3)nnn4C)N(C(=O)C(N)CC(C)(C)c3ccccc3)C2)cc1 (stereo partly drawn) [Example M05415]
pKi (FXIIa): < 5.70

COc1ccc(C[C@@H]2C[C@@H](C(=O)NCc3ccc4c(c3)nnn4C)N(C(=O)C(N)CC(C)(C)c3ccccc3)C2)cc1 (stereo partly drawn) [Example M05416]
pKi (FXIIa): < 5.70

Cn1nnc2cc(CNC(=O)[C@@H]3C[C@@H](Oc4ccccc4)CN3C(=O)[C@H](N)CCc3ccccc3)ccc21 [Example M00948]
pKi (FXIIa): < 5.70
